The AC50 is the concentration at which the activity in the assay is half-maximal. The low end stands for greater potency, the high end for weaker potency.

One test concerns the target T1, Progesterone receptor (Homo sapiens, UniProt P06401).
T1 sequence (P06401 whole entry): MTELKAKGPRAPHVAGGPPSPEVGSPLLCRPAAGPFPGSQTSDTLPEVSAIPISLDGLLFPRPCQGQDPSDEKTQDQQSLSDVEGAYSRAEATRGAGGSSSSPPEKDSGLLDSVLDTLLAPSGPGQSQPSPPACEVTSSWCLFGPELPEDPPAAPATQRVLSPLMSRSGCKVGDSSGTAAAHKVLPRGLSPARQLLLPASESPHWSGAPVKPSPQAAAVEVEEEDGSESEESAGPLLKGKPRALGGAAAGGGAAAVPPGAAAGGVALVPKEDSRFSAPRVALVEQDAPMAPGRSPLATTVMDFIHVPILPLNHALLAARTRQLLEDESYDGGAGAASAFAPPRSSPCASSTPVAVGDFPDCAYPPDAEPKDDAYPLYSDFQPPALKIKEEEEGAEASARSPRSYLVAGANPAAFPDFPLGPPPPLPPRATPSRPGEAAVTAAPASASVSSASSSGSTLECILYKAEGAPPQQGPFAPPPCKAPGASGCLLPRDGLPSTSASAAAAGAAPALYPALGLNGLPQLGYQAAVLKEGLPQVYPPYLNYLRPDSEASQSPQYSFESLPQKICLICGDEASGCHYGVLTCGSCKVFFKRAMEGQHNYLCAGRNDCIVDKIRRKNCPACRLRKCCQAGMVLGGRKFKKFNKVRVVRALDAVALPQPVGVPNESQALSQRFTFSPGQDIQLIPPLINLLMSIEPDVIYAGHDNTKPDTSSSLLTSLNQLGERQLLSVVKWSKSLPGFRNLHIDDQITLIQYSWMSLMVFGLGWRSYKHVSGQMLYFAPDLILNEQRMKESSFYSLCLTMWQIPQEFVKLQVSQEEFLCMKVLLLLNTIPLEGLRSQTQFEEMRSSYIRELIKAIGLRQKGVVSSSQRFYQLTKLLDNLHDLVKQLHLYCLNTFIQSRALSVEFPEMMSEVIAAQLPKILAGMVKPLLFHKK
It is filed as functional.

Test [1] deals with T2, Equilibrative nucleoside transporter 1 (Homo sapiens, UniProt Q99808).
T2 sequence (Q99808 whole entry): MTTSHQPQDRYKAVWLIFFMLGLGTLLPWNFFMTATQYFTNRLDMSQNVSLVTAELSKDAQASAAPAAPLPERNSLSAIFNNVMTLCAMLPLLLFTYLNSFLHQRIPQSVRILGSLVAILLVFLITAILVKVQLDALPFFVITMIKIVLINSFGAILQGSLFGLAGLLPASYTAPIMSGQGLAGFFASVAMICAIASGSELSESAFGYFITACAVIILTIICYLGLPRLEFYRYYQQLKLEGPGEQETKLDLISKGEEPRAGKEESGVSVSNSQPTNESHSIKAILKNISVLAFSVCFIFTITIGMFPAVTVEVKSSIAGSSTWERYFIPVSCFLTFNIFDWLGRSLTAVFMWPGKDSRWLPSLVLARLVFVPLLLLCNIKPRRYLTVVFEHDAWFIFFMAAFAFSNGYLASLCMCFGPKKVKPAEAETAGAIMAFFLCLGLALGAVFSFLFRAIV

In test [2] the target is T3, Alpha-1A adrenergic receptor (Homo sapiens, UniProt P35348).
T3 sequence (P35348 whole entry): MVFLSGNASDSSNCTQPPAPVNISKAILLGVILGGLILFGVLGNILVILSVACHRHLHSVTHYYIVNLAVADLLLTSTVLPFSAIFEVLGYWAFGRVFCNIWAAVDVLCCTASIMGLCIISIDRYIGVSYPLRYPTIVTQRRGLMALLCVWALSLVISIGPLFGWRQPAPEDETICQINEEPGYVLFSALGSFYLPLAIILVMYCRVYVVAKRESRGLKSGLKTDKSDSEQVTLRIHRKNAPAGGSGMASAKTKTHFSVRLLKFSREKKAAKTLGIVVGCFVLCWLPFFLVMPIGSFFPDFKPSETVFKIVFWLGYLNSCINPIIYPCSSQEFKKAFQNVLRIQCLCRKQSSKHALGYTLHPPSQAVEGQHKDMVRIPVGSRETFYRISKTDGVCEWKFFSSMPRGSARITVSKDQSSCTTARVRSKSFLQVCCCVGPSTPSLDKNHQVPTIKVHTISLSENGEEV
It is filed as functional, cell-based.

A further test addresses T4, Estrogen receptor (Homo sapiens, UniProt P03372).
T4 sequence (P03372 whole entry): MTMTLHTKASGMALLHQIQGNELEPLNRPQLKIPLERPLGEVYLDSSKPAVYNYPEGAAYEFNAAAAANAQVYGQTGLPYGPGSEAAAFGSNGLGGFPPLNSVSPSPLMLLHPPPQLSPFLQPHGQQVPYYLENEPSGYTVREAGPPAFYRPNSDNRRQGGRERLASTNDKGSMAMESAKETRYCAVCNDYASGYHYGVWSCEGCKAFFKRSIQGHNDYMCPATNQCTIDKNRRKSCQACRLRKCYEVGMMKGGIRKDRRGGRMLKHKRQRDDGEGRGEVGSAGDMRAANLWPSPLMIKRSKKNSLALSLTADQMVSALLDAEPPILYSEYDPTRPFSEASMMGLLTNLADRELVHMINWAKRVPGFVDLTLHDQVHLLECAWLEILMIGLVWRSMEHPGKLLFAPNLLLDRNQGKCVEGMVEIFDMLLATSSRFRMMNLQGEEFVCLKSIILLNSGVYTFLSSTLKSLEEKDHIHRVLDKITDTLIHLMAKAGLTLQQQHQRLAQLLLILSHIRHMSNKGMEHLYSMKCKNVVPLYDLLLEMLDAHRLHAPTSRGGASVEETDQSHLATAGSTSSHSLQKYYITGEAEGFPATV

The target of test [3] is T3, Alpha-1A adrenergic receptor. It is filed as functional, cell-based. The source holds these as a separate data set.
Also: assay procedure not described here.

Regarding `CN1C(=O)CC(c2ccccc2)C1=O` (configuration not stated) [PHENSUXIMIDE], the AC50 (at Progesterone receptor; in test [1]) was greater than 10 µM in each case.

On to `CCCCC(C)(O)C/C=C/[C@H]1[C@H](O)CC(=O)[C@@H]1CCCCCCC(=O)OC` (some centres not stated) [MISOPROSTOL], for which the AC50 in test [2] is greater than 30 µM; at Progesterone receptor, 27 µM; in test [1] it was greater than 30 µM.

Consider `NC(CO)C(=O)NNCc1ccc(O)c(O)c1O` (configuration not stated) [BENSERAZIDE], for which the AC50 in test [2] is greater than 30 µM; at Estrogen receptor, 1.72 µM; in test [1], greater than 30 µM; in test [3] it was greater than 30 µM.

On to `CCN1CCC[C@H]1CNC(=O)c1cc(S(N)(=O)=O)ccc1OC` [LEVOSULPIRIDE], for which the AC50 in test [2] and in test [3] was greater than 30 µM each time.

Consider `COc1ccc(C(=O)N2CCN(c3ccc4c(c3)CCC(=O)N4)CC2)cc1OC` [VESNARINONE], for which the AC50 (in test [2]; on Estrogen receptor; in test [3]) was greater than 30 µM in each case.

Consider `CCN(CC)CCOC(=O)c1ccc(N)cc1` [PROCAINE], for which the AC50 in test [2], in test [1] and in test [3] was greater than 30 µM each time.

For `C#C[C@]1(O)CC[C@H]2[C@@H]3CCC4=CCCC[C@@H]4[C@H]3CC[C@@]21C` [LYNESTRENOL], the AC50 (in test [2]; at Estrogen receptor; in test [1]; in test [3]) was greater than 30 µM in each case.

In the case of `C=C1CC[C@@]2(O)[C@H]3Cc4ccc(O)c5c4[C@@]2(CCN3CC2CC2)[C@H]1O5`, the AC50 (in test [2]; at Progesterone receptor; in test [1]) was greater than 30 µM in each case.

Turning to `CN1CC(=O)N2[C@H](c3ccc4c(c3)OCO4)c3[nH]c4ccccc4c3C[C@@H]2C1=O`, the concentration at half-maximal activity (AC50) (in test [2]; at Estrogen receptor; in test [1]) was greater than 30 µM throughout.

Regarding `Nc1ncnc2c1ncn2[C@@H]1O[C@H](COP(=O)(O)O)[C@@H](O)[C@H]1O` [ADENOSINE PHOSPHATE], the AC50 (in test [2]; at Progesterone receptor; in test [3]) was greater than 30 µM each time.

As to `COc1c(N2CCNC(C)C2)c(F)cc2c(=O)c(C(=O)O)cn(C3CC3)c12` (configuration not stated) [GATIFLOXACIN], the AC50 (on Progesterone receptor; in test [1]) was greater than 10 µM throughout.

On to `CC(Cc1ccccc1)NCCC(c1ccccc1)c1ccccc1` (configuration not stated) [PRENYLAMINE], for which the half-maximal activity concentration (AC50) (in test [2]; at Estrogen receptor; in test [1]; in test [3]) was greater than 30 µM in each case.

Take `COc1ccc2cccc(CCNC(C)=O)c2c1` [AGOMELATINE]: the AC50 (in test [2]; at Estrogen receptor; in test [1]; in test [3]) was greater than 30 µM each time.

On to `CC(C)c1c(C(=O)Nc2ccccc2)c(-c2ccccc2)c(-c2ccc(F)cc2)n1CC[C@@H](O)C[C@@H](O)CC(=O)O` [ATORVASTATIN], for which the AC50 in test [2], in test [1] and in test [3] was greater than 30 µM throughout.

Consider `CN(C)C(=O)OC1N=C(c2ccccc2)c2cc(Cl)ccc2N(C)C1=O` (configuration not stated) [CAMAZEPAM], for which the AC50 (in test [2]; on Estrogen receptor; in test [1]; in test [3]) was greater than 30 µM each time.

As for `CCCCN1CCCCC1C(=O)Nc1c(C)cccc1C` (configuration not stated) [BUPIVACAINE], the AC50 on Progesterone receptor was greater than 30 µM.

On to `CC(C)C(=O)OCC(=O)[C@@]12O[C@H](C3CCCCC3)O[C@@H]1C[C@H]1[C@@H]3CCC4=CC(=O)C=C[C@]4(C)[C@H]3[C@@H](O)C[C@@]12C` [CICLESONIDE], for which the AC50 in test [2] was greater than 30 µM; on Estrogen receptor, greater than 30 µM; in test [1] it was greater than 10 µM; in test [3], greater than 30 µM.

For `CC/C=C\C/C=C\C/C=C\CCCCCCCC(=O)O` [LINOLENIC ACID], the AC50 in test [2], in test [1] and in test [3] was greater than 30 µM in each case.

For the compound `Cc1cc(-c2ccccc2)nnc1NCCN1CCOCC1` [MINAPRINE], the AC50 (in test [2]; on Estrogen receptor; in test [1]; in test [3]) was greater than 30 µM in each case.

With `Cc1c(C(=O)Nc2ccc(N3C[C@@H](C)O[C@@H](C)C3)nc2)cccc1-c1ccc(OC(F)(F)F)cc1` [SONIDEGIB], the AC50 (on Estrogen receptor; in test [1]) was greater than 30 µM throughout.

On to `C1COC(NC(C2CC2)C2CC2)=N1` [RILMENIDINE], for which the AC50 in test [2] was 3.4 µM; on Estrogen receptor it was greater than 30 µM; in test [1], greater than 30 µM.

Consider `CC(=O)OCC(=O)[C@@]12OC3(CCCC3)O[C@@H]1C[C@H]1[C@@H]3CCC4=CC(=O)C=C[C@]4(C)[C@@]3(F)[C@@H](O)C[C@@]12C` [AMCINONIDE], for which the AC50 was greater than 30 µM on Estrogen receptor and greater than 10 µM in test [1].

Take `NC(=O)C[S+]([O-])C(c1ccccc1)c1ccccc1` (configuration not stated) [MODAFINIL]: the AC50 (in test [2]; at Estrogen receptor; in test [1]; in test [3]) was greater than 30 µM in each case.

On to `CCNC(C)Cc1cccc(C(F)(F)F)c1` (configuration not stated) [FENFLURAMINE], for which the AC50 (at Estrogen receptor; in test [1]) was greater than 30 µM throughout.

With `CN1CCc2cccc3c2[C@H]1Cc1ccc(O)c(O)c1-3` [APOMORPHINE], the concentration at half-maximal activity (AC50) is 0.32 µM in test [2], 1.47 µM on Estrogen receptor and greater than 30 µM in test [1].

Take `C[C@]12CCC(=O)C=C1CC[C@@H]1[C@@H]2CC[C@@]2(C)[C@H]1CC[C@]2(C)O` [METHYLTESTOSTERONE]: the AC50 in test [2] is greater than 30 µM; at Estrogen receptor, greater than 30 µM; in test [1] it was greater than 30 µM; in test [3] it was 27 µM.

Regarding `C[C@H]1C[C@@H]2[C@H]([C@@H](O)C[C@@]3(C)[C@H]2CC[C@]3(O)C(=O)COC(=O)CCC(=O)O)[C@@]2(C)C=CC(=O)C=C12` [METHYLPREDNISOLONE HEMISUCCINATE], the AC50 (in test [2]; at Progesterone receptor; in test [1]) was greater than 30 µM throughout.

Take `CCOc1cc(N)c([N+](=O)[O-])cc1C(=O)NC1CCN(CC2CC=CCC2)CC1` (configuration not stated) [CINITAPRIDE]: the AC50 (in test [2]; at Estrogen receptor; in test [1]; in test [3]) was greater than 30 µM each time.

As for `O=C(O)CCCc1ccccc1` [PHENYLBUTANOIC ACID], the AC50 in test [2], in test [1] and in test [3] was greater than 30 µM each time.

On to `CN[C@@H](C)[C@H](O)c1ccccc1` [EPHEDRINE], for which the AC50 in test [2] is 13 µM; at Estrogen receptor, greater than 30 µM; in test [1], greater than 30 µM.

These data come from ChEMBL document CHEMBL5291721, “A preclinical secondary pharmacology resource illuminates target-adverse drug reaction associations of marketed drugs” (Nat Commun, 2023).
